# Calls of active or inactive are those of the source.
# Columns and labels:
# Protein skinhead-1 = target: T1, Protein skinhead-1 (Caenorhabditis elegans, UniProt P34707); assay type: functional
# T1 sequence (P34707 whole entry): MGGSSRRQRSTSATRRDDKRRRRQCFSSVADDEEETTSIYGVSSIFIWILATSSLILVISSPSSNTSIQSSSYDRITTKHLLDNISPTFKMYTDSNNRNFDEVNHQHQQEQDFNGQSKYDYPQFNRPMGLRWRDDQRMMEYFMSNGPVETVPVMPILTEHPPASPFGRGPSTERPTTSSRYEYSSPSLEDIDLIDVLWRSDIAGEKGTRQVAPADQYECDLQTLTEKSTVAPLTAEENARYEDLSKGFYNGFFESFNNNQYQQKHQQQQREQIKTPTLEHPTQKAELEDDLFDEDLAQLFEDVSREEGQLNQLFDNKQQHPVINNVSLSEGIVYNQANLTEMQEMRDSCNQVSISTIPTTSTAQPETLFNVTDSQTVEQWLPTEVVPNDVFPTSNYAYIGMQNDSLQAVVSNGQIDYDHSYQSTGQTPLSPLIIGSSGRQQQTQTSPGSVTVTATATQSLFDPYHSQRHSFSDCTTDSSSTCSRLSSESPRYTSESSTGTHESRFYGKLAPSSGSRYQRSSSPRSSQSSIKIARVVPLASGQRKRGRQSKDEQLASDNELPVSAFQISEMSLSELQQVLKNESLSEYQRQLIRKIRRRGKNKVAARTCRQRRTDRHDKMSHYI
# [1] = target: FAD-linked sulfhydryl oxidase ALR (Homo sapiens, UniProt P55789); assay: inhibitors of human ALR sulfhydryl oxidase, dose response, biochemical, H2O2 detection, luminescence, cherry-pick (AID 493248)
# [2] = target: T2, Short transient receptor potential channel 4 (Mus musculus, UniProt Q9QUQ5); assay: mouse TRPC4 channel activators, dose response, cell-based, HEK293 TRPC4/mu-opioid, Fluo-4 calcium (AID 434937); assay type: functional
# T2 sequence (Q9QUQ5 whole entry): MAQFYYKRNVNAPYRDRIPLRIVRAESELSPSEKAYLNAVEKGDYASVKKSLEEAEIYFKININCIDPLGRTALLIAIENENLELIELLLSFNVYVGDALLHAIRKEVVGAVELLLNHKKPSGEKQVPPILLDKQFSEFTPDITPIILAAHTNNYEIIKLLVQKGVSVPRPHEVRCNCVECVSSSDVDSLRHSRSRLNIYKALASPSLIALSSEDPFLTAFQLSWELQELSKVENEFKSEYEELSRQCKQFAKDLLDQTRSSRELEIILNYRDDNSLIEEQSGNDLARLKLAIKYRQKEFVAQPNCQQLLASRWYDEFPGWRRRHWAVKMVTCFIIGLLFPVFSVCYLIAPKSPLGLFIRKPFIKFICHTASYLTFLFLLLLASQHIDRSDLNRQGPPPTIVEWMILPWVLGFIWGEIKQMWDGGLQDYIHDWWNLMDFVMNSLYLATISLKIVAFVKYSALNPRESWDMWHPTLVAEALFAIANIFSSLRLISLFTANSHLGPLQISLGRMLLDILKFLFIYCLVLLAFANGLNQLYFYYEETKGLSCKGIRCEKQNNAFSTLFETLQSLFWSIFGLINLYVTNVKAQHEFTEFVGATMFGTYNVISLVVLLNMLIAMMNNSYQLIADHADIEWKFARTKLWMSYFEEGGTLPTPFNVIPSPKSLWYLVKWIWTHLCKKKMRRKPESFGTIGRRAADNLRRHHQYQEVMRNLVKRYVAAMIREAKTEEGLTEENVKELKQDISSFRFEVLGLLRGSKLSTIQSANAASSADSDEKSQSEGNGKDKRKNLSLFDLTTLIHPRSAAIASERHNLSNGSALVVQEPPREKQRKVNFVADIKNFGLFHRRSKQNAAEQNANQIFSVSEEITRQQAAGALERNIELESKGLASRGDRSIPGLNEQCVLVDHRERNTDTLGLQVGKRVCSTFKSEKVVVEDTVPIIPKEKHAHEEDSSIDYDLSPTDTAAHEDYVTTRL
# [3] = control 3'UTR Renilla luciferase suppression, dose response, counter-screen for Shn3 inhibitor project, cell-based, Clone20-Shn3RL, cherry-picked (AID 624133); assay type: functional
# [4] = HepG2 cell cytotoxicity, dose response, cytotoxicity control for Shn3 inhibitor project, CellTiter-Glo, cherry-picked (AID 624134); assay type: functional, cell-based
# [5] = Shn3 3'UTR reporter inhibitors, dose response, cell-based, Clone20 osteoblasts, firefly luciferase, cherry-picked (AID 624132); assay type: functional;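 note: firefly luciferase luminescence from reporter carrying the Shn3 3'UTR in osteoblasts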
# [6] = target: T3, Rac GTPase-activating protein 1 (Homo sapiens, UniProt Q9H0H5); assay: MgcRacGAP GTPase-activating activity inhibitors, confirmation, biochemical, ADP Hunter fluorescence, primary and confirmatory (AID 624330); assay type: functional
# T3 sequence (Q9H0H5 whole entry): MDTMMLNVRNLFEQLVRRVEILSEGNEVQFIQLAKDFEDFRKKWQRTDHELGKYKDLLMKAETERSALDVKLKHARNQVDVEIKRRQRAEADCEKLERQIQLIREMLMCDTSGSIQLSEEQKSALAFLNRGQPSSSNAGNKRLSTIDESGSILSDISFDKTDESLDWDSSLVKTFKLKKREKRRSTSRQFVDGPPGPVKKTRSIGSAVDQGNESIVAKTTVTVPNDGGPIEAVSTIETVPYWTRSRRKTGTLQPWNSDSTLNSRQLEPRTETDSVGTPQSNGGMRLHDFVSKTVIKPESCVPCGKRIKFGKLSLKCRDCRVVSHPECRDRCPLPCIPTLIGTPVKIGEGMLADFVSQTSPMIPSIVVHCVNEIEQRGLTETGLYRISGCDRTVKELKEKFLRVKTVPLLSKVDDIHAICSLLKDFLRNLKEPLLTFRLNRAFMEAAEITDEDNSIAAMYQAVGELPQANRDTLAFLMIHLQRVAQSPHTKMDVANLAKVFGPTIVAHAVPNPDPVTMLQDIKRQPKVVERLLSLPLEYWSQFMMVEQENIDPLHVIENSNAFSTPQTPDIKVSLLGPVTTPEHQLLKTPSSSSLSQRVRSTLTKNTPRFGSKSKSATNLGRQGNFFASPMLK
# INS1 = assay: beta cell apoptosis inhibitors, cytokine rescue, dose response, luminescence, retest (AID 449756); assay type: functional, cell-based; settings: Rattus norvegicus;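 note: cell death triggered by IL-1 beta plus TNF-alpha plus IFN-gamma mixture; protective hits raise ATP signal compared with cytokine alone wells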
# Cytochrome P450 2D6 = Cytochrome P450 2D6 (Homo sapiens, UniProt P10635);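 note: CYP2D6 member of a cytochrome P450 panel assay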
# Cytochrome P450 2C9 = Cytochrome P450 2C9 (Homo sapiens, UniProt P11712)
# H9c2 = assay: cells; assay type: functional, cell-based; settings: Rattus norvegicus, H9c2, Myocardium;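 note: confirmatory concentration-response retest of ultra-high-throughput screening hits for modulation of myocardial damage; cell death induced by hydrogen peroxide oxidative stress; compound pretreatment for 60 min then peroxide exposure for 2 h; potency is for protecting the cells against peroxide damage rather than for killing them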
# Fatty acid synthase [7] = target: T4, Fatty acid synthase (Homo sapiens, UniProt P49327); assay: FAS thioesterase domain inhibitors, dose response, biochemical, endpoint fluorescence intensity, uHTS hits (AID 624327); assay type: functional;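 note: fluorescence from hydrolysis of an O-methyl fluorescein acyl ester substrate by the enzyme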
# Fatty acid synthase [8] = target: T4, Fatty acid synthase; assay: FAS thioesterase domain inhibitors, dose response, biochemical, kinetic fluorescence intensity (AID 624326); assay type: functional;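 note: rate of fluorescence rise from hydrolysis of a fluorogenic O-methyl fluorescein ester substrate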
# Cytochrome P450 2C19 = Cytochrome P450 2C19 (Homo sapiens, UniProt P33261); assay: Cytochrome panel assay with activity outcomes. Panel member name: p450-cyp2c19 Compounds with AC50 equal or less than 10 uM are considered active; assay type: functional; settings: read-out: AC50
# [9] = Luminescence Cell-Based Dose Response HTS to Identify Inhibitors of 5'UTR Stem-Loop Driven Prion Protein mRNA Translation in H4 Neuroglioblastoma Cells. [Related pubchem assays: 1827 (Project Summary), 1813 (Primary HTS)]; assay type: functional
# [10] = Luminescence Cell-Based Dose Retest to Confirm Inhibitors of Cancer Stem Cells. [Related pubchem assays (depositor defined):AID2717, AID2721]; assay type: functional; settings: Homo sapiens
# [11] = inhibitors of firefly luciferase expression or activity, dose response, H4 neuroglioma cells, luminescence (AID 1990); assay type: functional, cell-based
# [12] = inhibitors of SNCA 5'UTR-driven reporter translation, confirmation, H4 neuroglioma cells, luminescence (AID 1988); assay type: functional, cell-based
# BJ = assay: cells; assay type: functional, cell-based, Homo sapiens; settings: bj
# Chain of Cytochrome P450 2C9 (P11712 whole entry): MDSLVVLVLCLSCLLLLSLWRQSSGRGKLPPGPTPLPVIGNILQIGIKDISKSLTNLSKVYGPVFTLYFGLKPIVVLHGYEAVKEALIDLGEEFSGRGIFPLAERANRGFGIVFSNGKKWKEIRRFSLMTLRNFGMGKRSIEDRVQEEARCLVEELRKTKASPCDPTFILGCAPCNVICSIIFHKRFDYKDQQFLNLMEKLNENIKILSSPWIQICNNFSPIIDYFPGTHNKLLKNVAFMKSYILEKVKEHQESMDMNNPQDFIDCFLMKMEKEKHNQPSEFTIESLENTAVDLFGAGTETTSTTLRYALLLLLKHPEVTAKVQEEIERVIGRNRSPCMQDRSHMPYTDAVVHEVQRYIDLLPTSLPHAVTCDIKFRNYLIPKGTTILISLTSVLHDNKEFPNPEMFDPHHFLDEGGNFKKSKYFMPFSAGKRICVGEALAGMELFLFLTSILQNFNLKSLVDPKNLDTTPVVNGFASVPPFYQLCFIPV
# Chain of FAD-linked sulfhydryl oxidase ALR (P55789 whole entry): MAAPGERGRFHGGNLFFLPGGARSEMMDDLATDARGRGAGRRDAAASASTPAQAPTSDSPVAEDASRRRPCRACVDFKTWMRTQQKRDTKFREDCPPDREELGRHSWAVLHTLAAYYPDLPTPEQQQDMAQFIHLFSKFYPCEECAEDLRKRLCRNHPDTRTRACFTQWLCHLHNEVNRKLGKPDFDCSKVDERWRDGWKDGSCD
# T4 sequence (P49327 whole entry, the tested form may be a part): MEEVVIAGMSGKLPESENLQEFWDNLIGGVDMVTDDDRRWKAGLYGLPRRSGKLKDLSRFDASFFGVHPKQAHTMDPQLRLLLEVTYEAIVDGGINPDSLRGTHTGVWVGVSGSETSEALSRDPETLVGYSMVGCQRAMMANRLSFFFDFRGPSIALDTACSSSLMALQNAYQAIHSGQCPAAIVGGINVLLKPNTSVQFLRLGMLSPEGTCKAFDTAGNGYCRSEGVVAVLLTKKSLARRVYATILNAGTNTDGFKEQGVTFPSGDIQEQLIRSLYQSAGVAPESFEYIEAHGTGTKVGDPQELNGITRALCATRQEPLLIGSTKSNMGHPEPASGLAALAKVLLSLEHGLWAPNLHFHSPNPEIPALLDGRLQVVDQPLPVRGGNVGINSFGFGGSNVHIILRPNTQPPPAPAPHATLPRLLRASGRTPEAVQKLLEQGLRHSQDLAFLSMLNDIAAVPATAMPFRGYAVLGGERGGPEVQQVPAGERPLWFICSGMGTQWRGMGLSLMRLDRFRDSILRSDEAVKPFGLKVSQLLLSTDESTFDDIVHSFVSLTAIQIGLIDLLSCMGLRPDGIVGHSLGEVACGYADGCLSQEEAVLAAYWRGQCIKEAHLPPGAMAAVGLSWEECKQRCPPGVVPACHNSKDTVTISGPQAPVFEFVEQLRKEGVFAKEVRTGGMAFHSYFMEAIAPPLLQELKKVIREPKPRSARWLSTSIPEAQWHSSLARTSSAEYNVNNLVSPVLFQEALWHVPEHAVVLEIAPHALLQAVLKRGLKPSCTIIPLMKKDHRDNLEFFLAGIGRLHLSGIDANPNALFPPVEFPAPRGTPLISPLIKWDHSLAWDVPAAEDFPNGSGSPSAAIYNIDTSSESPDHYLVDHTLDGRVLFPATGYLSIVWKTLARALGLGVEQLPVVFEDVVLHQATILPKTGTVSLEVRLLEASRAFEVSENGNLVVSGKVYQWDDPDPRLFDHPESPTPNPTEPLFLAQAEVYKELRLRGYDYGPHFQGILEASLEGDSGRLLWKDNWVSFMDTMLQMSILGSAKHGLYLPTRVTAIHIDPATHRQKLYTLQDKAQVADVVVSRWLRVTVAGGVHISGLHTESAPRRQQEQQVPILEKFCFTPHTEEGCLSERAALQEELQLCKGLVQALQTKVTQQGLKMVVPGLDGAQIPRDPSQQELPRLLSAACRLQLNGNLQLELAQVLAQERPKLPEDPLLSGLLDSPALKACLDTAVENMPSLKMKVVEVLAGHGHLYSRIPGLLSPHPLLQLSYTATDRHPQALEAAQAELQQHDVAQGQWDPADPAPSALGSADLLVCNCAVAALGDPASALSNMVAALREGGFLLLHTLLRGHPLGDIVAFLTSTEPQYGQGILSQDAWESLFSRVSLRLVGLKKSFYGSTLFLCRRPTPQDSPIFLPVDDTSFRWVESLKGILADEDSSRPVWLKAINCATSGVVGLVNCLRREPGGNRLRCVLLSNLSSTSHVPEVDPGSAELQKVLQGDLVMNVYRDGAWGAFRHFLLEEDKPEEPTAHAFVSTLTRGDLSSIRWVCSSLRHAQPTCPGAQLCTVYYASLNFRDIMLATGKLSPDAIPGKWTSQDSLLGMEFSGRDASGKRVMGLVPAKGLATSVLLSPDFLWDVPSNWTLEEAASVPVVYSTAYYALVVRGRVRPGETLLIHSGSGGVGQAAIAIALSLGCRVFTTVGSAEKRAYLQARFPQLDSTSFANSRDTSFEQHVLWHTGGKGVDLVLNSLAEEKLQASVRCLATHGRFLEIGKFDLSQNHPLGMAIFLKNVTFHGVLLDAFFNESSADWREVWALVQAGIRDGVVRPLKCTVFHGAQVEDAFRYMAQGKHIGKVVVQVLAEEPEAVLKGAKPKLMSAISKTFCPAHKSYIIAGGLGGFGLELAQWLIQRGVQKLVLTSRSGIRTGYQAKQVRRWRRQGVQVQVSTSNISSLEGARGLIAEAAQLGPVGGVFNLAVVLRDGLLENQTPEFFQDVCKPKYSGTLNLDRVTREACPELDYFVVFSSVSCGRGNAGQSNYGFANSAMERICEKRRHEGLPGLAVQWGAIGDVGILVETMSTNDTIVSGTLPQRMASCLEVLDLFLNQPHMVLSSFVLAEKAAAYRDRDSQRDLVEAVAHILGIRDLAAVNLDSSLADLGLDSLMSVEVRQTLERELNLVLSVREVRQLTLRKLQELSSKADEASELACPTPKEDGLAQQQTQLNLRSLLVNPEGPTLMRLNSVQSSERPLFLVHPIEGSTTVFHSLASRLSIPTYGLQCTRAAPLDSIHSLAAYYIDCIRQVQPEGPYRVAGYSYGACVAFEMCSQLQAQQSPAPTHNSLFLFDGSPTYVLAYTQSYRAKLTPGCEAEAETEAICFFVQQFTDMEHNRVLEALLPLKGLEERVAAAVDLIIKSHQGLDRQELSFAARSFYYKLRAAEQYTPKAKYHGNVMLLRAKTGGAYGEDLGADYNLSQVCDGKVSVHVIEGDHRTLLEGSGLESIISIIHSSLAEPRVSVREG
# Chain of Cytochrome P450 2D6 (P10635 whole entry): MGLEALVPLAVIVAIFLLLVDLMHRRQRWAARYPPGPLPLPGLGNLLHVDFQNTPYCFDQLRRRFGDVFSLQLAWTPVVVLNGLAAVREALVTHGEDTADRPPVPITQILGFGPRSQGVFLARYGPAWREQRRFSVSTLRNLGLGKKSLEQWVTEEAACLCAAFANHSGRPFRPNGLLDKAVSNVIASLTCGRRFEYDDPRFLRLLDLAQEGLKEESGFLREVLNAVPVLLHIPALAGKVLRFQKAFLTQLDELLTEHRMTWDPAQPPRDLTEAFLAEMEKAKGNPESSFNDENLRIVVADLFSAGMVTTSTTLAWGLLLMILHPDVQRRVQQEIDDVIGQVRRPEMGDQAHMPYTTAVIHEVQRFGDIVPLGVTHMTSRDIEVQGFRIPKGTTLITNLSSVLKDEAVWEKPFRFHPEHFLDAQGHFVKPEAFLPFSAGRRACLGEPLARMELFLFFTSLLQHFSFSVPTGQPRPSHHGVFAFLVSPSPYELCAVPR
# Chain of Cytochrome P450 2C19 (P33261 whole entry): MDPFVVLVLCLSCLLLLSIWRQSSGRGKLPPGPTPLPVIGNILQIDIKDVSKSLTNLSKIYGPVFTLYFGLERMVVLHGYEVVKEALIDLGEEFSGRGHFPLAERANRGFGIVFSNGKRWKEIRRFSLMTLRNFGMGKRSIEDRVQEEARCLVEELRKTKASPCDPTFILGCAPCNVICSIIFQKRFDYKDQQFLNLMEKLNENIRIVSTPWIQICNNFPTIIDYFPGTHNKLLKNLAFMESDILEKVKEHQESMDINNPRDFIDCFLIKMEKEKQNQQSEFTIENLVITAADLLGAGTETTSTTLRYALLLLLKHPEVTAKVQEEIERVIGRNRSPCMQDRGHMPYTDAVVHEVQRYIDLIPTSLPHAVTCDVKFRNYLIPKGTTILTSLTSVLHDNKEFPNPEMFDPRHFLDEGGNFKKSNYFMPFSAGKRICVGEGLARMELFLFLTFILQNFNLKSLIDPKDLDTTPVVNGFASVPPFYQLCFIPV
smiles,measurement,setting,value
Cc1cc(N(CCCl)CCCl)ccc1C=Cc1ccncn1,IC50,Protein skinhead-1,> 100 µM (inactive)
Sc1nnc(-c2ccc3ccccc3n2)o1,AC50,[1],10 nM (active)
Fc1ccc(CSc2nnc(-c3cccs3)o2)cc1,IC50,Protein skinhead-1,27.3 µM (active)
CCOC(=O)C(Oc1ccc2c(-c3ccc(OC)cc3)cc(=O)oc2c1C)c1ccccc1 (stereo not drawn),IC50,Protein skinhead-1,> 100 µM (inactive)
COc1ccc(C(CNCC(O)COc2c(C)ccc(C)c2C)N(C)C)cc1 (stereo not drawn),EC50,[2],1.19 µM (active)
O=S(=O)(c1ccc2ccccc2c1)N1CCN=C1SCc1cccnc1,AC50,[1],72 nM (active)
COc1cccc(CN(C)C(=O)c2cccc(S(=O)(=O)N3CCN(Cc4ccccc4)CC3)c2)c1OC,AC50,[3],8.32 µM (active)
same,AC50,[4],63.3 µM (active)
same,AC50,[5],4.94 µM (active)
Cc1nc(Cc2nnc(SCC(=O)N3CCN(c4ccc(O)cc4)CC3)o2)cs1,IC50,[6],30 µM (active)
COc1cc(/C=C/C(=O)OCC(=O)Nc2ccc3c(c2)OCO3)ccc1O,IC50,[6],48.2 µM (active)
Cc1ccccc1OCCn1c(S)nc2c(N)ncnc21,IC50,[6],41.6 µM (active)
CC(C)Oc1ccc(S(=O)(=O)N2CCCCC2)cc1NC(=O)CN1CCCC1c1cccs1 (stereo not drawn),AC50,[3],20.6 µM (active)
same,AC50,[4],> 70 µM (inactive)
same,AC50,[5],7.88 µM (active)
same,AC50,INS1,5.76 µM (active)
CCN1CCN(c2ccc(S(=O)(=O)N3CCCCC3)cc2NC(=O)c2cccc(Cl)c2)CC1,EC50,[2],3.76 µM (active)
Cc1ccc(CNC(=O)CN2C(=O)COc3ccc(C)cc32)cc1,AC50,Cytochrome P450 2D6,28.2 µM (inconclusive)
same,AC50,Cytochrome P450 2C9,inconclusive
COc1ccc(N2CCN(C(=O)c3cc4c(-c5cccc(OC)c5)nn(C)c4s3)CC2)cc1,IC50,Protein skinhead-1,> 100 µM (inactive)
Cc1nn(-c2ccccc2)c(C)c1-c1cc(C(=O)N/N=C/c2ccc(O)cc2)[nH]n1,AC50,[1],4120 nM (active)
COc1cc(NC(=O)C(c2ccccc2)c2ccccc2)c(C(=O)O)cc1OC,AC50,[1],10200 nM (active)
c1ccc(CNc2ccc3c(c2)ncn3C2CCCCC2)nc1,AC50,[1],1200 nM (active)
COc1ccc(C(CNC(=O)c2ccc3c(c2)OCCO3)N(C)C)cc1 (stereo not drawn),EC50,[2],0.237 µM (active)
c1ccc2sc(N3CCNCC3)nc2c1,EC50,[2],0.473 µM (active)
O=C(Nc1nc(-c2ccccn2)cs1)c1cccc(S(=O)(=O)N2CCOCC2)c1,IC50,H9c2,21 µM (active)
same,AC50,[3],2.89 µM (active)
same,AC50,[4],5.28 µM (active)
same,AC50,[5],1.52 µM (active)
Cc1ccc(S(=O)(=O)N2C[C@H]3[C@H]4C(=O)N(c5ccccc5)C(=O)[C@H]4CC(=O)[C@H]3[C@@H]2c2cccc3ccccc23)cc1,IC50,Protein skinhead-1,> 100 µM (inactive)
same,IC50,Fatty acid synthase [7],21.6 µM (inactive)
same,IC50,Fatty acid synthase [8],15.6 µM (active)
NC(=O)c1ccc(CSc2nc3ccccc3s2)cc1,AC50,[1],730 nM (active)
O=C(NCc1cccnc1)C1CCCN(Cc2cnn(-c3ccccc3)c2-n2cccc2)C1 (stereo not drawn),EC50,[2],1.68 µM (active)
Cc1ccc(CNc2nc(NCC3CC3)nc3ccsc23)c(C)c1,AC50,[3],6.26 µM (active)
same,AC50,[4],40.4 µM (active)
same,AC50,[5],3.95 µM (active)
CCOC(=O)c1ccc(CNC(=O)C2CCCCC2C(=O)OCC(F)(F)F)o1 (stereo not drawn),AC50,Cytochrome P450 2C19,39.8 µM (inconclusive)
same,AC50,Cytochrome P450 2D6,25.1 µM (inconclusive)
same,AC50,Cytochrome P450 2C9,inconclusive
COc1ccccc1-c1nnc(-c2ccc(F)cc2)o1,IC50,Protein skinhead-1,90.4 µM (inactive)
COc1ccc(CNCCC(c2ccc(OC(C)C)cc2)c2ccccc2OC)cc1 (stereo not drawn),EC50,[9],113 µM (active)
same,AC50,[10],5.81 µM (active)
same,AC50,[3],20.9 µM (active)
same,AC50,[4],13.3 µM (active)
same,AC50,[5],3.86 µM (active)
same,AC50,INS1,7.26 µM (active)
same,EC50,[11],11.4 µM (active)
same,EC50,[12],8.9 µM (active)
COc1cccc(/C=N/n2c(=S)n(C)c3cc(C)c(C)cc32)c1OC,AC50,Cytochrome P450 2C9,inconclusive
CSc1ccc(CN2CCC(C(=O)NCc3ccc(C)cc3)CC2)cc1,IC50,[6],108 µM (active)
COc1cc2c(c(OC)c1OC)-c1ccc(=O)c(O)cc1C(NC(C)=O)CC2 (stereo not drawn),EC50,BJ,126 nM (inconclusive)
Cc1ccc(-c2nc(-c3ccncc3)no2)cc1,IC50,Protein skinhead-1,13.9 µM (active)
